pIC50: −log10 of the molar value.
Legend:
[1] = molecular target: T1, CDK2/Cyclin E2 (Homo sapiens, UniProt P24941); test: CDK2/CyclinE2 Enzymatic Activity Assay (TR-FRET); type: biochemical; conditions: ATP 1 mM final, read-out: CDK2_E1 IC50
T1 construct: Recombinant protein complex CDK2/Cyclin E2, expressed from insect cell, was purchased from ProQinase
How it was run: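 Recombinant insect-cell CDK2/Cyclin E2 (1 nM) phosphorylated ULight-4E-BP1 (50 nM) with 1 mM ATP in HEPES pH 7.4 buffer, after 20 min compound preincubation; MgCl2 (10 mM) started the 45 min reaction at 37° C. Europium anti-phospho-4E-BP1 TR-FRET read; 9-dose IC50 by 4-parameter fit.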

[2] = system: OVCAR3 p-RB; test: pRB ICW Assay in OVCAR3 Cells; type: cell-based; conditions: Homo sapiens, OVCAR-3, incubated with compound for 2 hours
How it was run: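 OVCAR3 cells were treated 2 h at 37° C. with a 9-point half-log compound series, duplicate wells, with 10 μM reference compound as maximum inhibition. Fixed, permeabilized cells were stained with anti-phospho-RB plus DRAQ5 and imaged at 700/800 nm (In-Cell Western).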

[3] = molecular target: T2, CDK4/Cyclin D1 (Homo sapiens, UniProt P11802); test: CDK4/CyclinD1 Enzymatic Activity Assay (TR-FRET); type: biochemical; conditions: ATP 2 mM final, read-out: CDK4_D1 IC50
T2 construct: purchased ProQinase; host or cells: insect cell
How it was run: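 Insect-cell-expressed CDK4/Cyclin D1 (1 nM) with ULight-4E-BP1 (100 nM) and 2 mM ATP in HEPES pH 7.4; 9-dose 3-fold compound series preincubated 20 min, reaction started with 10 mM MgCl2, 45 min at 37° C. Europium anti-P-4E-BP1 TR-FRET read; IC50 from 4-parameter Hill fit.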

T2 sequence (P11802 whole entry): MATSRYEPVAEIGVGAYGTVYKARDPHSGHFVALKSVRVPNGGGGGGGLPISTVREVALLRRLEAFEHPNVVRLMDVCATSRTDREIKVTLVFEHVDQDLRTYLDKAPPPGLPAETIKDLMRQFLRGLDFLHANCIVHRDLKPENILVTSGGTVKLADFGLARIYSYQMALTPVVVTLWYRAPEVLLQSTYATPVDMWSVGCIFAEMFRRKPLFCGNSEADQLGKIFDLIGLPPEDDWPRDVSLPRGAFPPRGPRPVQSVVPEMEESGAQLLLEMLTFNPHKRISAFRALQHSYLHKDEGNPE
T2 sequence (P24385 whole entry partner): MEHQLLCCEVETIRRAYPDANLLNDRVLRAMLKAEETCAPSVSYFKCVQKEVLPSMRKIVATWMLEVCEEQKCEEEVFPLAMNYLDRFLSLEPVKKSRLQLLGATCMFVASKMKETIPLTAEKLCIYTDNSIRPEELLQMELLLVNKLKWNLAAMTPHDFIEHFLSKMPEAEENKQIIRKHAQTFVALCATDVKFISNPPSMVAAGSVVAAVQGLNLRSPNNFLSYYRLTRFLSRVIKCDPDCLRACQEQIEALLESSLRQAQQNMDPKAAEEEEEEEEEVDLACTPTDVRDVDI

Q: `C[C@@H]1CN(S(C)(=O)=O)CC[C@@H]1Nc1ncc(C(F)(F)F)c(-c2ncc(CC(C)(C)O)s2)n1` [Example 131, 2-methyl-1-(2-(2-(((3R,4S)-3-methyl-1-(methylsulfonyl)piperidin-4-yl)amino)-5-(trifluoromethyl)pyrimidin-4-yl)thiazol-5-yl)propan-2-ol] was tested. Which pIC50 [1] did it give?
A: The pIC50 was ≥ 7.00.

Q: What about the pIC50 [2] of the same molecule?
A: The pIC50 was < 6.30.

Q: And the pIC50 [3]?
A: Its pIC50 is 6.30 to 7.00.

Q: How did the pIC50 [1] turn out when `C[C@@H]1CN(S(C)(=O)=O)CC[C@@H]1Nc1ncc(C(F)(F)F)c(-c2ncc(C(C)(C)O)s2)n1` [Example 132, 2-(2-(2-(((3R,4S)-3-methyl-1-(methylsulfonyl)piperidin-4-yl)amino)-5-(trifluoromethyl)pyrimidin-4-yl)thiazol-5-yl)propan-2-ol] was run?
A: Its pIC50 is ≥ 7.00.

Q: What about the pIC50 [2] of the same molecule?
A: The pIC50 was < 6.30.

Q: And the pIC50 [3]?
A: Its pIC50 is 6.30 to 7.00.

Q: `C[C@@H]1CN(S(C)(=O)=O)CC[C@@H]1Nc1ncc(C(F)(F)F)c(-c2ncc(C(C)(O)C(F)F)s2)n1` (stereo partly drawn) [Example 142, 1,1-difluoro-2-(2-(2-(((3R,4S)-3-methyl-1-(methylsulfonyl)piperidin-4-yl)amino)-5-(trifluoromethyl)pyrimidin-4-yl)thiazol-5-yl)propan-2-ol] was tested. Which pIC50 [1] did it give?
A: Its pIC50 is ≥ 7.00.

Q: And the pIC50 [2]?
A: Its pIC50 is 6.30 to 7.00.

Q: And the pIC50 [3]?
A: Its pIC50 is 6.30 to 7.00.

From US20240150340A1, “CDK Inhibitors And Their Use As Pharmaceuticals” (Prelude Therapeutics Incorporated, priority 2022, published 2024)
